# Measured values reported in PubChem BioAssay (NCI).
#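 A five-concentration, 48-hour dose response in 96-well plates underlies each endpoint, interpolated linearly between surrounding concentrations. At the TGI there is no net growth.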
# Assays:
# Test in all cases: NCI tumour cell line growth inhibition, 48 h
# [1] = tested on: SF-295 CNS
# [2] = tested on: MOLT-4 leukemia
# [3] = tested on: HS 578T breast
# [4] = tested on: NCI-H226 lung
# [5] = tested on: MDA-MB-231 breast
# [6] = tested on: BT-549 breast
# [7] = tested on: NCI/ADR-RES ovarian
# [8] = tested on: CCRF-CEM leukemia
# [9] = tested on: KM12 colon
# [10] = tested on: OVCAR-5 ovarian
# [11] = tested on: HT29 colon
# [12] = tested on: A549 NSCLC
# [13] = tested on: HOP-62 NSCLC
# [14] = tested on: MCF7 breast
# [15] = tested on: UACC-257 melanoma
# [16] = tested on: LOX IMVI melanoma
# [17] = tested on: SNB-75 CNS
# [18] = tested on: CAKI-1 renal
# [19] = tested on: K-562 leukemia
# [20] = tested on: EKVX NSCLC
# [21] = tested on: TK-10 renal
# [22] = tested on: IGROV1 ovarian
# [23] = tested on: SW-620 colon
# [24] = tested on: SK-MEL-5 melanoma
# [25] = tested on: MDA-MB-435
# [26] = tested on: HCC-2998 colon
# [27] = tested on: OVCAR-4 ovarian
# [28] = tested on: DU-145 prostate
# [29] = tested on: U251 CNS
# [30] = tested on: PC-3 prostate
# [31] = tested on: SK-OV-3 ovarian
# [32] = tested on: NCI-H460 lung
# [33] = tested on: SR leukemia
# [34] = tested on: UO-31 renal
# [35] = tested on: OVCAR-3 ovarian
# [36] = tested on: SNB-19 CNS
# [37] = tested on: MDA-N
# [38] = tested on: NCI-H23 lung
# [39] = tested on: OVCAR-8 ovarian
# [40] = tested on: SF-539 CNS
# [41] = tested on: ACHN renal
# [42] = tested on: MALME-3M melanoma
# [43] = tested on: SK-MEL-2 melanoma
# [44] = tested on: HCT-116 colon
# [45] = tested on: RXF 393 renal
# [46] = tested on: UACC-62 melanoma
# [47] = tested on: SK-MEL-28 melanoma
# [48] = tested on: RPMI-8226 leukemia
# [49] = tested on: SF-268 CNS
# [50] = tested on: T-47D breast
# [51] = tested on: SN12C renal
# [52] = tested on: COLO 205 colon
# [53] = tested on: HOP-92 NSCLC
# [54] = tested on: M14 melanoma
# [55] = tested on: NCI-H522 lung
# [56] = tested on: A498 renal
# [57] = tested on: HL-60(TB) leukemia
# [58] = tested on: HCT-15 colon
# [59] = tested on: 786-0 renal
compound,measurement,setting,value
O=C(/C=C/c1ccc2c(c1)OCO2)NCCc1ccco1,TGI,[1],> 100 µM
same,TGI,[2],> 100 µM
same,TGI,[3],> 100 µM
same,TGI,[4],> 100 µM
same,TGI,[5],> 100 µM
same,TGI,[6],> 100 µM
same,TGI,[7],> 100 µM
same,TGI,[8],> 100 µM
same,TGI,[9],> 100 µM
same,TGI,[10],> 100 µM
same,TGI,[11],> 100 µM
same,TGI,[12],> 100 µM
same,TGI,[13],> 100 µM
same,TGI,[14],> 100 µM
same,TGI,[15],> 100 µM
same,TGI,[16],> 100 µM
same,TGI,[17],> 100 µM
same,TGI,[18],> 100 µM
same,TGI,[19],> 100 µM
same,TGI,[20],> 100 µM
same,TGI,[21],> 100 µM
same,TGI,[22],> 100 µM
same,TGI,[23],> 100 µM
same,TGI,[24],> 100 µM
same,TGI,[25],> 100 µM
same,TGI,[26],> 100 µM
same,TGI,[27],> 100 µM
same,TGI,[28],> 100 µM
same,TGI,[29],> 100 µM
same,TGI,[30],> 100 µM
same,TGI,[31],> 100 µM
same,TGI,[32],> 100 µM
same,TGI,[33],> 100 µM
same,TGI,[34],> 100 µM
same,TGI,[35],> 100 µM
same,TGI,[36],> 100 µM
same,TGI,[37],> 100 µM
same,TGI,[38],> 100 µM
same,TGI,[39],> 100 µM
same,TGI,[40],> 100 µM
same,TGI,[41],> 100 µM
same,TGI,[42],> 100 µM
same,TGI,[43],> 100 µM
same,TGI,[44],> 100 µM
same,TGI,[45],> 100 µM
same,TGI,[46],> 100 µM
same,TGI,[47],> 100 µM
same,TGI,[48],99.1 µM
same,TGI,[49],> 100 µM
same,TGI,[50],> 100 µM
same,TGI,[51],> 100 µM
same,TGI,[52],> 100 µM
same,TGI,[53],> 100 µM
same,TGI,[54],> 100 µM
same,TGI,[55],79.7 µM
COc1ccc(C(=O)c2c(-c3ccccc3NC(=O)C(F)(F)F)[nH]c3ccccc23)cc1,TGI,[1],25.5 µM
same,TGI,[2],10.6 µM
same,TGI,[3],46.9 µM
same,TGI,[4],37.9 µM
same,TGI,[5],21.4 µM
same,TGI,[6],29 µM
same,TGI,[7],28.8 µM
same,TGI,[8],15.2 µM
same,TGI,[9],21.8 µM
same,TGI,[10],25.5 µM
same,TGI,[11],16.5 µM
same,TGI,[12],20.2 µM
same,TGI,[13],22.1 µM
same,TGI,[14],17.2 µM
same,TGI,[15],29.9 µM
same,TGI,[16],16.1 µM
same,TGI,[17],7.89 µM
same,TGI,[18],28.6 µM
same,TGI,[19],32.7 µM
same,TGI,[20],24.4 µM
same,TGI,[21],24.9 µM
same,TGI,[56],4.7 µM
same,TGI,[22],24.3 µM
same,TGI,[23],16.7 µM
same,TGI,[24],22 µM
same,TGI,[25],25.5 µM
same,TGI,[26],9.11 µM
same,TGI,[27],19.2 µM
same,TGI,[28],17 µM
same,TGI,[57],13.6 µM
same,TGI,[29],7.17 µM
same,TGI,[30],17.3 µM
same,TGI,[58],19.9 µM
same,TGI,[31],32.7 µM
same,TGI,[32],16.4 µM
same,TGI,[33],8.62 µM
same,TGI,[34],19.4 µM
same,TGI,[35],8.67 µM
same,TGI,[36],21.6 µM
same,TGI,[37],29.3 µM
same,TGI,[38],25.7 µM
same,TGI,[39],23.5 µM
same,TGI,[40],4.41 µM
same,TGI,[41],11.6 µM
same,TGI,[42],30.5 µM
same,TGI,[43],14.9 µM
same,TGI,[44],25.5 µM
same,TGI,[46],25.8 µM
same,TGI,[47],27.6 µM
same,TGI,[48],27.2 µM
same,TGI,[49],28.7 µM
same,TGI,[50],9.05 µM
same,TGI,[51],28.3 µM
same,TGI,[52],16.1 µM
same,TGI,[53],27.6 µM
same,TGI,[54],32.6 µM
same,TGI,[55],22.8 µM
O=C(OCC1CCCN2CCCCC12)c1cccnc1 (centres undefined),TGI,[1],> 100 µM
same,TGI,[2],> 100 µM
same,TGI,[3],> 100 µM
same,TGI,[4],> 100 µM
same,TGI,[5],> 100 µM
same,TGI,[6],> 100 µM
same,TGI,[7],> 100 µM
same,TGI,[8],> 100 µM
same,TGI,[9],> 100 µM
same,TGI,[11],> 100 µM
same,TGI,[12],> 100 µM
same,TGI,[14],> 100 µM
same,TGI,[15],> 100 µM
same,TGI,[16],> 100 µM
same,TGI,[17],> 100 µM
same,TGI,[18],> 100 µM
same,TGI,[19],> 100 µM
same,TGI,[20],> 100 µM
same,TGI,[21],> 100 µM
same,TGI,[56],> 100 µM
same,TGI,[23],> 100 µM
same,TGI,[24],> 100 µM
same,TGI,[25],> 100 µM
same,TGI,[26],> 100 µM
same,TGI,[27],> 100 µM
same,TGI,[28],> 100 µM
same,TGI,[57],> 100 µM
same,TGI,[29],> 100 µM
same,TGI,[30],> 100 µM
same,TGI,[58],> 100 µM
same,TGI,[31],> 100 µM
same,TGI,[32],> 100 µM
same,TGI,[34],> 100 µM
same,TGI,[36],> 100 µM
same,TGI,[37],> 100 µM
same,TGI,[38],> 100 µM
same,TGI,[39],> 100 µM
same,TGI,[40],> 100 µM
same,TGI,[41],> 100 µM
same,TGI,[42],> 100 µM
same,TGI,[43],> 100 µM
same,TGI,[44],> 100 µM
same,TGI,[45],> 100 µM
same,TGI,[46],> 100 µM
same,TGI,[47],> 100 µM
same,TGI,[48],> 100 µM
same,TGI,[49],> 100 µM
same,TGI,[59],> 100 µM
same,TGI,[50],> 100 µM
same,TGI,[51],> 100 µM
same,TGI,[52],> 100 µM
same,TGI,[53],> 100 µM
Nc1nc2c(c(-c3ccccc3Cl)n1)COC/C2=C\c1ccccc1Cl,TGI,[1],27.7 µM
same,TGI,[2],34.6 µM
same,TGI,[3],51 µM
same,TGI,[4],39.2 µM
same,TGI,[5],34.8 µM
same,TGI,[6],33.4 µM
same,TGI,[7],33 µM
same,TGI,[8],32.8 µM
same,TGI,[9],41.8 µM
same,TGI,[10],31.7 µM
same,TGI,[13],32.2 µM
same,TGI,[14],27.7 µM
same,TGI,[15],34.7 µM
same,TGI,[16],36.9 µM
same,TGI,[17],35.3 µM
same,TGI,[18],31.9 µM
same,TGI,[19],32 µM
same,TGI,[20],35.2 µM
same,TGI,[21],31.9 µM
same,TGI,[56],30.6 µM
same,TGI,[22],34 µM
same,TGI,[23],31.8 µM
same,TGI,[24],31.7 µM
same,TGI,[25],24.7 µM
same,TGI,[26],34.6 µM
same,TGI,[27],39 µM
same,TGI,[28],32.6 µM
same,TGI,[57],25.5 µM
same,TGI,[29],31.6 µM
same,TGI,[30],27.4 µM
same,TGI,[58],39.9 µM
same,TGI,[31],30 µM
same,TGI,[32],39 µM
same,TGI,[33],22.9 µM
same,TGI,[34],32 µM
same,TGI,[35],31.2 µM
same,TGI,[36],29.8 µM
same,TGI,[37],24.1 µM
same,TGI,[38],34.8 µM
same,TGI,[39],30.8 µM
same,TGI,[40],34.4 µM
same,TGI,[41],32.3 µM
same,TGI,[43],31 µM
same,TGI,[44],30.7 µM
same,TGI,[45],29.9 µM
same,TGI,[46],30.6 µM
same,TGI,[48],35.2 µM
same,TGI,[49],34.3 µM
same,TGI,[59],33.1 µM
same,TGI,[50],44.8 µM
same,TGI,[51],31.3 µM
same,TGI,[52],30.1 µM
same,TGI,[53],29 µM
same,TGI,[54],29.6 µM
same,TGI,[55],31 µM
